Measured values published in patent US4181574A, “Production of antibiotics by fermentation of novel strains of Micropolyspora caesia” (priority 1978, dated 1980).
In brackets after ≈: the same amount, converted by molar mass. Counter-ions that a name gives are not always drawn. Like-named read-outs stand apart in the source and are kept apart here.

What was measured:
[1] = tested on: S. pyogenes A20201; test: Systemic infection with S. pyogenes in mice; assay type: in vivo; conditions: po; 5 days
[2] = tested on: two anaerobic and one aerobic organisms; test: Bactericidal activity; assay type: cell-based
[3] = Solubility; assay type: physicochemical; conditions: lower alcohols, ethyl acetate, chloroform and benzene
[4] = tested on: aerobic bacteria; test: antibacterial activity against aerobic bacteria; assay type: cell-based; conditions: for activity against usual aerobic organisms: E. coli and K. pneumoniae; for susceptibility of Bacillus species, streptococci, Neisseria meningitidis, N. gonorrhoeae and Hemophilus influenzae: in vitro
[5] = tested on: C. perfringens A9635; assay type: in vivo, mice; conditions: po; 5 days
[6] = tested on: Neisseria meninigitidis A21496; test: MIC, serial two-fold agar dilution, aerobic bacteria; assay type: cell-based; conditions: Nm-4, medium B: GC medium (Eiken)
[7] = tested on: various aerobic and anaerobic organisms; test: Antibacterial spectrum; conditions: variety of anaerobic bacteria and some aerobic bacteria
[8] = Stability in acidic and alkaline solution; assay type: physicochemical; conditions: for stability in alkaline solution: relative to acidic
[9] = tested on: Klebsiella pneumoniae A9678; test: MIC, serial two-fold agar dilution, aerobic bacteria; assay type: cell-based; conditions: Kp-2; medium A: Nutrient agar (Eiken)
[10] = tested on: B. fragilis A20928-1; test: Inoculum size effect on MIC; assay type: cell-based; conditions: Bacteroides fragilis, A209281, read-out: MIC in GAM broth, GAM broth; inoculum […] 10^6 cell/ml
[11] = tested on: C. perfringens or S. pyogenes; assay type: in vivo, mice
[12] = tested on: B. fragilis A20926; test: Localized infection with B. fragilis in mice; assay type: in vivo
[13] = tested on: Neisseria meninigitidis A20049; test: MIC, serial two-fold agar dilution, aerobic bacteria; assay type: cell-based
[14] = subcutaneous and oral
[15] = tested on: bacterial RNA polymerase; conditions: Antimicrobial Agents and Chemotherapy 1976, page 618; cited from earlier work
[16] = tested on: Escherichia coli K-12 A9632; test: MIC, serial two-fold agar dilution, aerobic bacteria; conditions: K12A9632
[17] = Nm-2, medium B: GC medium (Eiken), read-out: MIC

COC(=O)C1C(C)OC2(C)CC(=O)C3OC12OC(C(C)/C=C(C)/C=C/C(=O)C1=C(O)CN(C)C1=O)C3C (centres unmarked) [Bu-2313A]
PD50 [1]: NA at 25
type of antibacterial action [2]: bacteriostatic rather than bactericidal
solubility in most organic solvents [3]: readily soluble
activity against usual aerobic organisms [4]: only moderate to weak activity
susceptibility of Bacillus species, streptococci, Neisseria meningitidis, N. gonorrhoeae and Hemophilus influenzae [4]: susceptible
PD50 [5]: NA at 50
MIC [6]: 3.1 µg/mL (≈ 5.99 µM)
antibacterial activity [7]: exhibit antibacterial activity
stability in acidic solution [8]: stable
stability in alkaline solution [8]: less so
MIC [9]: > meningitidis
MIC [10]: 6 ng/mL (≈ 0.0116 µM)
activity by the oral route ([11]; oral): inactive

COC(=O)C1C(C)OC2(C)CC(=O)C3OC12OC(C(C)/C=C(C)/C=C/C(=O)C1=C(O)CNC1=O)C3C (centres unmarked) [Bu-2313B (Na salt)]
mean score ([12]; oral, 6.3 × 5 mg/kg): 3.4
sum of score ([12]; oral, 6.3 × 5 mg/kg): 17
mean score ([12]; oral, 25 × 5 mg/kg): 3.0
sum of score ([12]; oral, 25 × 5 mg/kg): 15
mean score ([12]; oral, 100 × 5 mg/kg): 2.4
sum of score ([12]; oral, 100 × 5 mg/kg): 12
mean score ([12]; oral, […] 5 mg/kg): 4.0
sum of score ([12]; oral, […] 5 mg/kg): 20
mean score ([12]; subcutaneous, 0.8 × 5 mg/kg): 4.0
sum of score ([12]; subcutaneous, 0.8 × 5 mg/kg): 20
mean score ([12]; subcutaneous, 3.1 × 5 mg/kg): 3.4
sum of score ([12]; subcutaneous, 3.1 × 5 mg/kg): 17
mean score ([12]; subcutaneous, 50 × 5 mg/kg): 2.2
sum of score ([12]; subcutaneous, 50 × 5 mg/kg): 11
mean score ([12]; subcutaneous, […] 5 mg/kg): 2.8
sum of score ([12]; subcutaneous, […] 5 mg/kg): 14

COC(=O)C1C(C)OC2(C)CC(=O)C3OC12OC(C(C)/C=C(C)/C=C/C(=O)C1=C(O)CNC1=O)C3C (centres unmarked) [Bu-2313B]
type of antibacterial action [2]: bacteriostatic rather than bactericidal
solubility in most organic solvents [3]: readily soluble
activity against usual aerobic organisms [4]: only moderate to weak activity
susceptibility of Bacillus species, streptococci, Neisseria meningitidis, N. gonorrhoeae and Hemophilus influenzae [4]: susceptible
MIC [13, 17]: 0.8 µg/mL (≈ 1.59 µM)
MIC [6]: 1.6 µg/mL (≈ 3.18 µM)
antibacterial activity [7]: exhibit antibacterial activity
stability in acidic solution [8]: stable
stability in alkaline solution [8]: less so
protection against systemic infections ([11]; both subcutaneous and oral administration): fairly good protection

CCC[C@@H]1C[C@@H](C(=O)N[C@@H]([C@H]2O[C@H](SC)[C@H](O)[C@@H](O)[C@H]2O)[C@H](C)Cl)N(C)C1 [Clindamycin]
MIC [13]: 0.05 µg/mL (≈ 0.118 µM)
mean score ([12]; oral, 6.3 × 5 mg/kg): 2.6
sum of score ([12]; oral, 6.3 × 5 mg/kg): 13
mean score ([12]; oral, 25 × 5 mg/kg): 1.8
sum of score ([12]; oral, 25 × 5 mg/kg): 9
sum of score ([12]; oral, 100 × 5 mg/kg): 2
mean score ([12]; oral, […] 5 mg/kg): 4.0
sum of score ([12]; oral, […] 5 mg/kg): 20
mean score ([12]; subcutaneous, 0.8 × 5 mg/kg): 4.0
sum of score ([12]; subcutaneous, 0.8 × 5 mg/kg): 20
mean score ([12]; subcutaneous, 3.1 × 5 mg/kg): 2.0
sum of score ([12]; subcutaneous, 3.1 × 5 mg/kg): 10
mean score ([12]; subcutaneous, 50 × 5 mg/kg): 0.8
sum of score ([12]; subcutaneous, 50 × 5 mg/kg): 4
mean score ([12]; subcutaneous, […] 5 mg/kg): 1.4
sum of score ([12]; subcutaneous, […] 5 mg/kg): 7

Cc1ncc([N+](=O)[O-])n1CCO [Flagyl]
absorption relative to Bu-2313B [14]: better absorptions than Bu-2313B
mean score ([12]; oral, 6.3 × 5 mg/kg): 3.4
sum of score ([12]; oral, 6.3 × 5 mg/kg): 17
mean score ([12]; oral, 25 × 5 mg/kg): 2.6
sum of score ([12]; oral, 25 × 5 mg/kg): 13
mean score ([12]; oral, 100 × 5 mg/kg): 1.6
sum of score ([12]; oral, 100 × 5 mg/kg): 8
mean score ([12]; oral, […] 5 mg/kg): 4.0
sum of score ([12]; oral, […] 5 mg/kg): 20
mean score ([12]; subcutaneous, 0.8 × 5 mg/kg): 4.0
sum of score ([12]; subcutaneous, 0.8 × 5 mg/kg): 20
mean score ([12]; subcutaneous, 3.1 × 5 mg/kg): 3.4
sum of score ([12]; subcutaneous, 3.1 × 5 mg/kg): 17
mean score ([12]; subcutaneous, 50 × 5 mg/kg): 2.0
sum of score ([12]; subcutaneous, 50 × 5 mg/kg): 10
mean score ([12]; subcutaneous, […] 5 mg/kg): 2.4
sum of score ([12]; subcutaneous, […] 5 mg/kg): 12

CC(/C=C/C(=O)C1=C(O)CNC1=O)=C\C(C)C1OC2(C)OC(C(=O)C3OC32C)C1C (centres unmarked) [Tirandamycin]
MIC [13, 17]: 0.8 µg/mL (≈ 1.92 µM)
MIC [6]: 0.8 µg/mL (≈ 1.92 µM)
inhibition of bacterial RNA polymerase [15]: inhibitor of bacterial RNA polymerase
MIC [16]: 100 µg/mL (≈ 240 µM)

CNC(=O)C(C)C1C(O)=C(C(=O)/C=C/C(C)=C/C(C)C2OC3(C)OC(C=CC34CO4)C2C)C(=O)N1C1CCC(O)C(C)O1 (centres unmarked) [streptolydigin]
inhibition of bacterial RNA polymerase [15]: inhibitor of bacterial RNA polymerase in a manner similar to streptolydigin
